pIC50: −log10 of the molar value. Read-outs that look alike come from different tables or passages of the source.
Experiments:
TFPI [1] = assay: Progress Curves of Inhibition of FXa | % Inhibit (2.5μM)
Experimental: Head of the field: Progress Curves of Inhibition of FXa | % Inhibit (2.5μM)

TFPI [2] = assay: Extrinsic Tenase Inhibition by TFPI | % Inhibit (2.5μM )
[3] = tested on: Tissue Factor Pathway Inhibitor (TFPI); assay: IC50 ELISA | Mean IC50 [nM]
FIGURE 78W = assay: FIGURE 78W
Excerpt: Table printed on a drawing sheet, FIGURE 78W

[4] = tested on: Tissue Factor Pathway Inhibitor (TFPI); assay: IC50 ELISA | Mean IC50 [nM]; remark: listed apart in the source
[5] = tested on: Tissue Factor Pathway Inhibitor (TFPI); assay: IC50 ELISA | Mean IC50 [nM]; remark: listed apart in the source
Excerpt: Table printed on a drawing sheet, FIGURE 78M
Head of the field: IC50 ELISA | Mean IC50 [nM]

FIX knock-out mice = assay: Tail-tip bleed model in FIX knock-out mice; format: in vivo, mouse
Experimental: JBT2329 also was tested in a FIX knock-out tail-tip bleed mouse model, which is a clinically-relevant model for hemophilia B human patients. The methodology was substantially similar to that described above with respect to the FVIII knock-out model. Instead of ADVATE, a recombinant FIX (rFIX) served as a reference. Median total blood loss in buffer-treated animals was 935 mg. Median total blood loss in animals treated with a murine anti-TFPI antibody (maTFPI) was 774 mg. Median total blood loss was reduced further when the animals received combined treatment of maTFPI and rFIX.

[6] = tested on: Tissue Factor Pathway Inhibitor (TFPI); assay: IC50 ELISA | Mean IC50 [nM]; remark: listed apart in the source
FIGURE 78K = assay: FIGURE 78K
Excerpt: Table printed on a drawing sheet, FIGURE 78K

FIGURE 78L = assay: FIGURE 78L
Excerpt: Table printed on a drawing sheet, FIGURE 78L

[7] = tested on: Tissue Factor Pathway Inhibitor (TFPI); assay: IC50 ELISA | IC50 [nM]
Excerpt: Table printed on a drawing sheet, FIGURE 78R
(§1) Head of the field: IC50 ELISA | IC50 [nM]

[8] = tested on: Tissue Factor Pathway Inhibitor (TFPI); assay: IC50 ELISA | Mean IC50 [nM]; remark: listed apart in the source
[9] = tested on: Tissue Factor Pathway Inhibitor (TFPI); assay: IC50 ELISA | Mean IC50 [nM]; remark: listed apart in the source
TFPI [10] = assay: IC50 ELISA | Mean IC50 [nM]
TFPI [11] = assay: Progress Curves of Inhibition of FXa | % Inhibit (2.5µM)
Experimental: Head of the field: Progress Curves of Inhibition of FXa | % Inhibit (2.5µM)
“*” denotes negative controls.

TFPI [12] = details: read-out: IC50 Mean
[13] = tested on: Tissue Factor Pathway Inhibitor (TFPI); assay: IC50 ELISA | IC50 [nM]; remark: listed apart in the source
Excerpt: Table printed on a drawing sheet, FIGURE 78Q
as §1

With “Ac- KKPLAVQLHVSKRSKEMALARLYYKTSKK- NH2 (SEQ ID NO: 2129) (Ac-KKPLAVQLHVSKRSKEMALARLYYKTSKK-NH2) [JBT0229]” the “Progress Curves of Inhibition of FXa | % Inhibit ([…])” value (TFPI [1]) was 0% and the “Extrinsic Tenase Inhibition by TFPI | % Inhibit ([…])” value (TFPI [2]) was 0%.

Work on “Ac-FQSKp-C(Acm)-VH-Tle-D[cY-Bta--Hcy-]RL-Aib-AKL- NH2 [JBT00002501]” yielded a pIC50 [3] of 8.20.

With “Ac-FQSKpNVHVPcYF-Hcy-RL-Aib-AKL-NH2 [JBT00002499]” the “24 h Human Plasma Stability | Mean Remaining [%]” value (FIGURE 78W) was 40.70%.

For “Ac-FQSKpNVHVDGYFERL-Aib-AKLC(ME-50MA)-NH2 [JBT00002325]”, the pIC50 [4] was 8.18.

With “Ac-FQSKpNVHVDGYFERL-Aib-AKLC(ME-400MA)-NH2 [JBT00002329] [listing 1 of 2 here]” the pIC50 [5] was 7.68.

In the case of rFIX: a recombinant FIX, the “Median total blood loss” value (FIX knock-out mice; 10 IU/kg rFIX alone) was 888 mg and the “Median total blood loss” value (FIX knock-out mice; 25 IU/kg rFIX alone) was 774 mg.

“Ac-FQ-Ede(O)-KpNVH-Tle-DaYFERL-Aib-AKL-NH2 [JBT00002453]” showed a pIC50 [6] of 8.10.

In the case of “Ac-FQSKpNVHVDGYFERL-Aib-AKLC(ME-400MA)-NH2 [JBT00002329] [listing 2 of 2 here]”, the “24 h Human Plasma Stability | Mean Remaining [%]” value (FIGURE 78K) was 69.50%, the “24 h Mouse Plasma Stability | Mean Remaining [%]” value (FIGURE 78K) was 69.50% and the “24 h Human Plasma Stability | Mean Remaining [%]” value (FIGURE 78L) was 62.90%. For the same substance, the “24 h Mouse Plasma Stability | Mean Remaining [%]” value (FIGURE 78L) was 81.80%, the “24 h Human Plasma Stability | Mean Remaining [%]” value (FIGURE 78M) was 59.30% and the “24 h Mouse Plasma Stability | Mean Remaining [%]” value (FIGURE 78M) was 56.70%.

Substance “Ac-FQSKp-C(NEM)-VH-Tle-DaY-Bta-ERL-Aib-AKL-NH2 [JBT00002502]” has a pIC50 [3] of 8.41.

“Palm-FQSKpNVH-Tle-DaYFERL-Aib-AKL-NH2 [JBT00002440]” gave a pIC50 [7] of under 6.30.

With “FAM-Ttds-FQSK-Nmg-NVFVDGYFERL-Aib-AKL-NH2 [JBT00002262]” the pIC50 [8] was 7.87.

With “Ac-FQSKpNVHVDGYFERL-Aib-AKLK(AOA-40kDa PSA)- NH2 [JBT00002430]” the pIC50 [9] was 7.81.

Work on “Ac-FQSKGNVFVDGYFERL-Aib-AKLC(PEG)-NH2 [JBT00001855]” yielded a pIC50 (TFPI [10]) of 6.92.

For “Ac- KKLTGDWTYFWSKVIWGPGVIERQMPVSTFH KK-NH2 (SEQ ID NO: 3065) (Ac-KKLTGDWTYFWSKVIWGPGVIERQMPVSTFHKK-NH2) [JBT0177*]”, the “Progress Curves of Inhibition of FXa | % Inhibit ([…])” value (TFPI [11]) was 4%.

For “Ac-FQSKGNVFVTGYFDRLRAKL-NH2 [JBT0775 | 69]”, the pIC50 (TFPI [12]) was 7.66.

For “Ac-FQVH-Tle-DGYFERL-Aib-AKL-NH2 [JBT00002428]”, the pIC50 [13] was under 6.30.

Work on “Ac-FqVH-Tle-DGYFERL-Aib-AKL-NH2 [JBT00002429]” yielded a pIC50 [7] of under 6.30.

From patent US10800816B2 (Baxalta GmbH, priority 2012, dated 2020)
